From US20250213512A1, “TRANSDERMAL ANALGESIC FORMULATION” (MEAT & LIVESTOCK AUSTRALIA LTD, priority 2017, published 2025)
“And” between values parts separate entries of the source, which are not always exact repeats. Identical values can stand only once.

Key:
[1] = Optimising the candidate formulations: excipient effects on ketoprofen movement through cattle skin in vitro
[2] = treated vs untreated cattle
Experimental: Blood samples were analysed for cortisol and biomarkers once the study was completed.
A preliminary analysis of the proteins identified was undertaken using Principal Component Analysis (PCA) within the MarkerView software package (FIG. 21). This analysis looked at a comparison of groups for all time points (FIG. 21a), a comparison of dehorning vs. sham (FIG. 21b) and a comparison of treatment vs. placebo (FIG. 21c).

[3] = Clinical study (disbudding): behaviour ethogram, mixed effect Poisson / negative binomial models; conditions: dehorned calves
Experimental: Calf behaviour was monitored before and after dehoming in suitable time periods. The day before dehoming, the behaviour of all 36 calves were monitored for two hours to record the baseline variation, which was taken as 0 hour observation. Next day after dehoming, behaviour was recorded at 2-4 hour, 4-8 hour, 8-12 hour, 24 hour and 48 hours. There were 12 behaviour parameters recorded, as follows: Head shaking, Ear flicking, Tail wagging. Head rubbing, lying, ruminating, neck extending, grooming, walking, vocalising, feeding and drinking.
The method used to identify those variables was Confirmatory Factor Analysis (CFA) within Structural Equation Modelling Framework (SEM).
Separate models were used for each of the observed animal behavioural traits (FIG. 19). A mixed effect Poisson model with an animal fitted as random intercepts and time as random slope, and unstructured error term for the residuals. Behaviours trait at baseline (time 0) was centred and added to the fixed effect part of the model (essentially turning the model into a random slope model too). […] Overdispersed models (also those with excess zeros) were refitted using a negative binomial model.
Experimental time was fitted as a categorical variable to derive estimated at each time point, time 2 hr was used as the reference category. Treatment was also fitted as categorical variable, placebo as reference category. […]

[4] = Solubility / precipitation of NSAIDs in the vehicles tested; conditions: vehicles screened
[5] = Screening of NSAID and vehicle combinations: penetration through cattle skin in vitro (Table 13)
Experimental: Hair was removed using an electric clipper and the subcutaneous fat and musculature carefully trimmed away before the skin was cut into circular sections (approximately 2 cm diameter) using a metal wad punch, and placed in airtight ziplock bags, stored at −20° C. within 5 hr of slaughter.
The skin samples were defrosted immediately prior to use and mounted on Franz diffusion cells. […] A glass cover slip was applied to each donor chamber to prevent evaporation of the donor solution. Samples (200 μL) were collected at regular intervals from the receptor chambers via the sampling port and immediately replenished with equal volumes of fresh receptor solution. At the completion of each study, the diffusions cells were dismantled and the skin discs were rinsed and stored.

[6] = 10% Tolfenamic acid, vehicle KET67 (Eucalyptus oil, 70% 1,8-cineole), sample time 4 hrs
[7] = 10% Tolfenamic acid, vehicle KET67 (Eucalyptus oil, 70% 1,8-cineole), sample time 6 hrs
[8] = 10% Tolfenamic acid, vehicle KET67 (Eucalyptus oil, 70% 1,8-cineole), sample time 8 hrs
[9] = 10% Tolfenamic acid, vehicle KET68 (propylene glycol, 100% PPG), sample time 4 hrs
[10] = Tolfenamic acid 10% in vehicle KET51: Ethanol 70% EthOH, Propylene glycol 30% PPG, terpene None, 0.1M citrate, sample time 6 hrs
[11] = Tolfenamic acid 10% in vehicle KET51: Ethanol 70% EthOH, Propylene glycol 30% PPG, terpene None, 0.1M citrate, sample time 8 hrs
[12] = Tolfenamic acid 10% in vehicle KET52: Ethanol 70% EthOH, Propylene glycol 30% PPG, Menthol 50 mg/mL, 0.1M citrate, sample time 0.5 hrs
[13] = Tolfenamic acid 10% in vehicle KET52: Ethanol 70% EthOH, Propylene glycol 30% PPG, Menthol 50 mg/mL, 0.1M citrate, sample time 2 hrs
[14] = Tolfenamic acid 10% in vehicle KET52: Ethanol 70% EthOH, Propylene glycol 30% PPG, Menthol 50 mg/mL, 0.1M citrate, sample time 4 hrs
[15] = Tolfenamic acid 10% in vehicle KET52: Ethanol 70% EthOH, Propylene glycol 30% PPG, Menthol 50 mg/mL, 0.1M citrate, sample time 6 hrs
[16] = Tolfenamic acid 10% in vehicle KET52: Ethanol 70% EthOH, Propylene glycol 30% PPG, Menthol 50 mg/mL, 0.1M citrate, sample time 8 hrs
[17] = Tolfenamic acid 50%, vehicle KET39: Ethanol 50% EthOH, no co-solvent, Menthol 50 mg/mL, sample time 0.5 hrs, replicates 1-3
[18] = Tolfenamic acid 50%, vehicle KET39: Ethanol 50% EthOH, no co-solvent, Menthol 50 mg/mL, sample time 2 hrs, replicates 1-3
[19] = Tolfenamic acid 50%, vehicle KET39: Ethanol 50% EthOH, no co-solvent, Menthol 50 mg/mL, sample time 4 hrs, replicates 1-3
[20] = Vehicle KET52: 70% EthOH, 30% PPG (propylene glycol), Menthol 50 mg/mL, 0.1M citrate, drug conc 10%, sample time 0.5 hrs
[21] = Vehicle KET52: 70% EthOH, 30% PPG (propylene glycol), Menthol 50 mg/mL, 0.1M citrate, drug conc 10%, sample time 8 hrs
[22] = Vehicle KET53: 70% EthOH, 30% OA (oleyl alcohol), no terpene, 0.1M citrate, drug conc 10%, sample time 0.5 hrs
[23] = Vehicle KET53: 70% EthOH, 30% OA (oleyl alcohol), no terpene, 0.1M citrate, drug conc 10%, sample time 8 hrs
[24] = Vehicle KET54: 100% SRArl (Superfine Arlasolve), 0.1M citrate, drug conc 10%, sample time 6 hrs

In the case of CCO [Ethanol, ethanol], the “effect of excipient on ketoprofen/NSAID penetration through cattle skin” value [1] is reported as “significantly enhanced penetration compared to other alcohols”.
For CC(C(=O)O)c1cccc(C(=O)c2ccccc2)c1 (centres unmarked) [ketoprofen], the “effect on key biomarkers of pain and inflammation” value [2] was “significantly affected key biomarkers of pain and inflammation” and the “head shaking compared with the placebo group” value [3] was “significantly different from the placebo group”.
With CCCCCCCCCCCCCC(=O)OC(C)C [IPM, isopropyl myristate] the “effect of excipient on ketoprofen/NSAID penetration through cattle skin” value [1] was “proving the more effective”.
With CC(C)O [isopropanol] the “effect of excipient on ketoprofen/NSAID penetration through cattle skin” value [1] was “did not perform as well as ethanol”.
For Cc1c(Cl)cccc1Nc1ccccc1C(=O)O [tolfenamic acid], the solubility in vehicles [4] was “not particularly soluble in most of the vehicles tested”, the solubility in vehicles ([4]; listed as Tolfenamic acid) was “poorly soluble in almost every vehicle tested” and the analysis conc ([5]; 10% Tolfenamic acid, vehicle KET66 (50% Ethanol, Eucalyptus oil 21% 1,8-cineole, 0.1M citrate), sample time 0.5 hrs) was 0.004. The analysis conc ([5]; 10% Tolfenamic acid, vehicle KET67 (Eucalyptus oil, 70% 1,8-cineole), sample time 0.5 hrs) was 0.005 and 0.003, the Concentration [5, 6] was 0.03 µg/mL and 0.015 µg/mL and the analysis conc [5, 6] was 0.01 and 0.005. For the same compound, the Concentration [5, 7] was 0.018 µg/mL and 0.015 µg/mL and 0.024 µg/mL, the analysis conc [5, 7] was 0.006 and 0.005 and 0.008 and the Concentration [5, 8] was 0.018 µg/mL and 0.015 µg/mL and 0.012 µg/mL. For the same compound, the analysis conc [5, 8] was 0.006 and 0.005 and 0.004, the analysis conc ([5]; 10% Tolfenamic acid, vehicle KET68 (propylene glycol, 100% PPG), sample time 0.5 hrs) was 0.002 and the Concentration [5, 9] was 0.021 µg/mL and 0.012 µg/mL. For the same compound, the analysis conc [5, 9] was 0.007 and 0.004, the analysis conc ([5]; 10% Tolfenamic acid, vehicle KET68 (propylene glycol, 100% PPG), sample time 6 hrs) was 0.002 and the analysis conc ([5]; Tolfenamic acid 10% in vehicle KET51: Ethanol 70% EthOH, Propylene glycol 30% PPG, terpene None, 0.1M citrate, sample time 2 hrs) was 0.011 and 0.01. The analysis conc ([5]; Tolfenamic acid 10% in vehicle KET51: Ethanol 70% EthOH, Propylene glycol 30% PPG, terpene None, 0.1M citrate, sample time 4 hrs) was 0.004 and 0.003, the “Concentration” value [5, 10] was 0.012 µg/mL and 0.015 µg/mL and the analysis conc [5, 10] was 0.004 and 0.005. The “Concentration” value [5, 11] was 0.018 µg/mL and 0.015 µg/mL and 0.012 µg/mL, the analysis conc [5, 11] was 0.006 and 0.005 and 0.004 and the “Concentration” value [5, 12] was 0.009 µg/mL. For the same compound, the analysis conc [5, 12] was 0.003, the “Concentration” value [5, 13] was 0.012 µg/mL and 0.006 µg/mL and the analysis conc [5, 13] was 0.004 and 0.002. For the same compound, the “Concentration” value [5, 14] was 0.009 µg/mL, the analysis conc [5, 14] was 0.003 and the “Concentration” value [5, 15] was 0.006 µg/mL. The analysis conc [5, 15] was 0.002, the “Concentration” value [5, 16] was 0.012 µg/mL and the analysis conc [5, 16] was 0.004. For the same compound, the Concentration ([5]; Tolfenamic acid 50%, vehicle KET34: Ethanol 70% EthOH, no co-solvent, Menthol 50 mg/mL, sample time 0.5 hrs, replicates 1-3) was 0 µg/mL, the Concentration ([5]; Tolfenamic acid 50%, vehicle KET34: Ethanol 70% EthOH, no co-solvent, Menthol 50 mg/mL, sample time 2 hrs, replicates 1-3) was 0 µg/mL and the Concentration ([5]; Tolfenamic acid 50%, vehicle KET34: Ethanol 70% EthOH, no co-solvent, Menthol 50 mg/mL, sample time 4 hrs, replicates 1-3) was 0 µg/mL. The Concentration ([5]; Tolfenamic acid 50%, vehicle KET34: Ethanol 70% EthOH, no co-solvent, Menthol 50 mg/mL, sample time 6 hrs, replicates 1-3) was 0 µg/mL, the Concentration ([5]; Tolfenamic acid 50%, vehicle KET34: Ethanol 70% EthOH, no co-solvent, Menthol 50 mg/mL, sample time 8 hrs, replicates 1-3) was 0 µg/mL and the Concentration [5, 17] was 0 μg/mL (2×) and 0.018 μg/mL. The analysis conc [5, 17] was 0.006, the Concentration [5, 18] was 0 μg/mL (2×) and 0.027 μg/mL and the analysis conc [5, 18] was 0.009. The Concentration [5, 19] was 0.012 μg/mL and 0 μg/mL (2×), the analysis conc [5, 19] was 0.004 and the Concentration ([5]; Tolfenamic acid 50%, vehicle KET39: Ethanol 50% EthOH, no co-solvent, Menthol 50 mg/mL, sample time 6 hrs, replicates 1-3) was 0 µg/mL. It also gave a Concentration ([5]; Tolfenamic acid 50%, vehicle KET39: Ethanol 50% EthOH, no co-solvent, Menthol 50 mg/mL, sample time 8 hrs, replicates 1-3) of 0 µg/mL, a Concentration [5, 20] of 0.006 µg/mL and an analysis conc [5, 20] of 0.002. It also gave a Concentration ([5]; Vehicle KET52: 70% EthOH, 30% PPG (propylene glycol), Menthol 50 mg/mL, 0.1M citrate, drug conc 10%, sample time 2 hrs) of 0 µg/mL, an analysis conc ([5]; Vehicle KET52: 70% EthOH, 30% PPG (propylene glycol), Menthol 50 mg/mL, 0.1M citrate, drug conc 10%, sample time 4 hrs) of 0.004 and an analysis conc ([5]; Vehicle KET52: 70% EthOH, 30% PPG (propylene glycol), Menthol 50 mg/mL, 0.1M citrate, drug conc 10%, sample time 6 hrs) of 0.003. For the same compound, the Concentration [5, 21] was 0.021 µg/mL and 0.012 µg/mL, the analysis conc [5, 21] was 0.007 and 0.004 and the Concentration [5, 22] was 0.006 µg/mL. For the same compound, the analysis conc [5, 22] was 0.002, the analysis conc ([5]; Vehicle KET53: 70% EthOH, 30% OA (oleyl alcohol), no terpene, 0.1M citrate, drug conc 10%, sample time 2 hrs) was 0.005 and the Concentration [5, 23] was 0.141 µg/mL and 0.24 µg/mL and 0.12 µg/mL. For the same compound, the analysis conc [5, 23] was 0.047 and 0.08 and 0.04, the analysis conc ([5]; Vehicle KET54: 100% SRArl (Superfine Arlasolve), 0.1M citrate, drug conc 10%, sample time 0.5 hrs) was 0.002 and the Concentration ([5]; Vehicle KET54: 100% SRArl (Superfine Arlasolve), 0.1M citrate, drug conc 10%, sample time 2 hrs) was 0 µg/mL. The Concentration ([5]; Vehicle KET54: 100% SRArl (Superfine Arlasolve), 0.1M citrate, drug conc 10%, sample time 4 hrs) was 0 µg/mL, the Concentration [5, 24] was 0.009 µg/mL and 0.006 µg/mL and the analysis conc [5, 24] was 0.003 and 0.002 and 0.004.
